Results from patent US10150764B2, “Substituted benzene compounds” (Epizyme, Inc., priority 2013, dated 2018).
Counter-ions that a name gives are not always drawn.

Legend:
[1] = biological target: wild-type EZH2 (PRC2 enzyme) (Homo sapiens (Human), UniProt Q15910); assay: PRC2 enzyme assay on peptide substrate, wild-type EZH2 (H3K27me0 peptide, 3H-SAM Flashplate); type: biochemical; details: wild-type PRC2 4 nM, read-out: WT EZH2 IC50
[2] = biological target: EZH2 Y641F mutant (PRC2 enzyme) (Homo sapiens (Human), UniProt Q15910, Y641F); assay: PRC2 enzyme assay on peptide substrate, EZH2 Y641F mutant (H3K27me2 peptide, 3H-SAM Flashplate); type: biochemical; details: Y641F mutant PRC2 4 nM
Sequence of EZH2 Y641F mutant (PRC2 enzyme) (Q15910 whole entry Y641F): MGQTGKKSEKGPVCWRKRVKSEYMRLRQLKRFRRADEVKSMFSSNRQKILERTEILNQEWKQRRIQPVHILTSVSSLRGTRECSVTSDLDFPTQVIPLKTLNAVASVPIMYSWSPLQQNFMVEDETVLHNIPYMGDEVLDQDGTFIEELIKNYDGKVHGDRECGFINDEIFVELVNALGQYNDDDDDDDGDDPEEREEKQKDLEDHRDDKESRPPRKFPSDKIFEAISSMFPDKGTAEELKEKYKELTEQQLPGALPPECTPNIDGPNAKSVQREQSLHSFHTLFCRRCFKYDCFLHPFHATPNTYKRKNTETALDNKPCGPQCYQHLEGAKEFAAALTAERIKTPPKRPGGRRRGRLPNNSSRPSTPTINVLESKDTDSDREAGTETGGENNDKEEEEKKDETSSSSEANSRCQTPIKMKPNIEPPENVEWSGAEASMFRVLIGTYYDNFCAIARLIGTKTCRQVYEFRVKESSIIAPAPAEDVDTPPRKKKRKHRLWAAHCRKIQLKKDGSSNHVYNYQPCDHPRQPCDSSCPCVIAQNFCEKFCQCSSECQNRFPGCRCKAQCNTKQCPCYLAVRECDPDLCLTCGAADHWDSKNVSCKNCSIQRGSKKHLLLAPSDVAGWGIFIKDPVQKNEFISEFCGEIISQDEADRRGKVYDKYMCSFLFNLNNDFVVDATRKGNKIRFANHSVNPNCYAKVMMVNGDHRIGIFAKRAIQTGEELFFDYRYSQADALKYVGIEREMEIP
Sequence of EZH2 Y641F mutant (PRC2 enzyme) (O75530 whole entry partner): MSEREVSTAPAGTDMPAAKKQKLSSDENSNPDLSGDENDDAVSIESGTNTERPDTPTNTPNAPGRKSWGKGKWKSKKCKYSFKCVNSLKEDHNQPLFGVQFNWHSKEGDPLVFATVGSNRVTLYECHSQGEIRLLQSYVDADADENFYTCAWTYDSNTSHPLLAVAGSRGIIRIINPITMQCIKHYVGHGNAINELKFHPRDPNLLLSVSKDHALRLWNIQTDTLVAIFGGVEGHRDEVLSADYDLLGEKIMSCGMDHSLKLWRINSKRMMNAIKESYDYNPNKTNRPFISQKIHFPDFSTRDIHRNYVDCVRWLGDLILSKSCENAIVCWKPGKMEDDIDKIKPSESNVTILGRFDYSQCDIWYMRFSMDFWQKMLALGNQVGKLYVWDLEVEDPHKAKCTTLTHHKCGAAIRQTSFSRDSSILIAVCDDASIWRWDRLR
Sequence of EZH2 Y641F mutant (PRC2 enzyme) (Q15022 whole entry partner): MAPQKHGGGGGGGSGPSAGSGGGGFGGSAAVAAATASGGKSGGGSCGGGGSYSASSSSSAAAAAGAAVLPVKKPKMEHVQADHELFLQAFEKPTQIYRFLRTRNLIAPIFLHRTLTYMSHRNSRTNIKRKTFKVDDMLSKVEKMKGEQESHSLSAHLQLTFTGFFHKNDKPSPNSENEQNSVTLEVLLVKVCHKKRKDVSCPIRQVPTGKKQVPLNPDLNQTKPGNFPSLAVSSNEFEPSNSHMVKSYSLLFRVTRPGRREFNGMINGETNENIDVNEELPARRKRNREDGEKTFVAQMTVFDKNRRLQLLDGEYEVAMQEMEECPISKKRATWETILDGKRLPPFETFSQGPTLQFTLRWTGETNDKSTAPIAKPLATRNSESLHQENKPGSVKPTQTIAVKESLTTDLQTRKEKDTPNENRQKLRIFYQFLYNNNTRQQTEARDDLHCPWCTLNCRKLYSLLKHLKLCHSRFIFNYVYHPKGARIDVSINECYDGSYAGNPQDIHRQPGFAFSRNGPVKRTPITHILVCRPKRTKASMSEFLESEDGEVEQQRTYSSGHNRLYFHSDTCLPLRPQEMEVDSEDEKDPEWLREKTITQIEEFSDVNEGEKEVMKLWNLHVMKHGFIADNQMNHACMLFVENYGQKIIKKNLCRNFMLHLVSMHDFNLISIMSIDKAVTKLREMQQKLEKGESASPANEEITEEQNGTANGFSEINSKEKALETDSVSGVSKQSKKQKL
Sequence of EZH2 Y641F mutant (PRC2 enzyme) (Q09028 whole entry partner): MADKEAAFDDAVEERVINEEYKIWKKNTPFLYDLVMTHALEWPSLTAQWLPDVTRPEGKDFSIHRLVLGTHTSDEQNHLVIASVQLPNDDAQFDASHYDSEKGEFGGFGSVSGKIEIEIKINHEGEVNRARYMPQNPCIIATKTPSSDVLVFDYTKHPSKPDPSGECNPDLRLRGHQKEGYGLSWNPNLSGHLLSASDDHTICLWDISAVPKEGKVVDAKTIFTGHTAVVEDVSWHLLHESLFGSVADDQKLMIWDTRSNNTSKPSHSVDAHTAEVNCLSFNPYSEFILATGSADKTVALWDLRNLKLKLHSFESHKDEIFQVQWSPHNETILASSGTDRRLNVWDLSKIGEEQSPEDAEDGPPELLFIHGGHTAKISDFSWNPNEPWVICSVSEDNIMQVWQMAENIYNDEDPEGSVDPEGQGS
Protocol: Human PRC2 enzymes were purified as 4-component enzyme complexes co-expressed in Spodoptera frugiperda (sf9) cells using a baculovirus expression system. […] The EED subunit contained an N-terminal FLAG tag that was used to purify the entire 4-component complex from sf9 cell lysates.
The assays were all performed in a buffer consisting of 20 mM bicine (pH=7.6), 0.5 mM DTT, 0.005% BSG and 0.002% Tween20, prepared on the day of use. […] DMSO (1 μL) was added to columns 11, 12, 23, 24, rows A-H for the maximum signal control, and SAH, a known product and inhibitor of PRC2 (1 μL) was added to columns 11, 12, 23, 24, rows I-P for the minimum signal control. A cocktail (40 μL) containing the wild-type PRC2 enzyme and H3K27me0 peptide or any of the Y641 mutant enzymes and H3K27me2 peptide was added by Multidrop Combi (Thermo). The compounds were allowed to incubate with PRC2 for 30 min at 25° C., then a cocktail (10 μL) containing a mixture of non-radioactive and ^3H-SAM was added to initiate the reaction (final volume=51 μL). […] The assays were stopped by the addition of non-radioactive SAM (10 μL) to a final concentration of 600 μM, which dilutes the ^3H-SAM to a level where its incorporation into the peptide substrate is no longer detectable. 50 of the reaction in the 384-well polypropylene plate was then transferred to a 384-well Flashplate and the biotinylated peptides were allowed to bind to the streptavidin surface for at least 1 h before being washed three times with 0.1% Tween20 in a Biotek ELx405 plate washer. The plates were then read in a PerkinElmer TopCount platereader to measure the quantity of ^3H-labeled peptide bound to the Flashplate surface, measured as disintegrations per minute (dpm) or alternatively, referred to as counts per minute (cpm).

Sequence of wild-type EZH2 (PRC2 enzyme) (Q15910 whole entry): as the sequence (Q15910 whole entry Y641F) above, with F641Y counted along it
Sequence of wild-type EZH2 (PRC2 enzyme) (O75530 whole entry partner): as the sequence (O75530 whole entry partner) above
Sequence of wild-type EZH2 (PRC2 enzyme) (Q15022 whole entry partner): as the sequence (Q15022 whole entry partner) above
Sequence of wild-type EZH2 (PRC2 enzyme) (Q09028 whole entry partner): as the sequence (Q09028 whole entry partner) above

Compound	IC50 [1] [µM]	IC50 [2] [µM]
CCO[C@@H]1COC[C@H]1N(CC)c1cc(Cl)cc(C(=O)NCc2c(C)[nH]n(C)c2=O)c1C (relative stereo) [Compound 43, 5-chloro-N-((2,5-dimethyl-3-oxo-2,3-dihydro-1H-pyrazol-4-yl)methyl)-3-(((trans)-4-ethoxytetrahydrofuran-3-yl)(ethyl)amino)-2-methylbenzamide]	> 50	> 50
CCN(c1cc(Cl)cc(C(=O)NCc2c(C)nn(C)c2OC)c1C)[C@@H]1COC[C@H]1OCCOC (relative stereo) [Compound 44, 5-chloro-3-(ethyl((trans)-4-(2-methoxyethoxy)tetrahydrofuran-3-yl)amino)-N-((5-methoxy-1,3-dimethyl-1H-pyrazol-4-yl)methyl)-2-methylbenzamide]	> 50	–
CCN(c1cc(Cl)cc(C(=O)NCc2c(C)[nH]n(C)c2=O)c1C)[C@@H]1COC[C@H]1OCCOC (relative stereo) [Compound 45, 5-chloro-N-((2,5-dimethyl-3-oxo-2,3-dihydro-1H-pyrazol-4-yl)methyl)-3-(ethyl((trans)-4-(2-methoxyethoxy)tetrahydrofuran-3-yl)amino)-2-methylbenzamide]	> 50	> 50
CCN(c1cc(Cl)cc(C(=O)NCc2c(C)nc3cc[nH]n3c2=O)c1C)[C@H]1CC[C@H](N(C)C)CC1 [Compound 8, 5-chloro-3-(((trans)-4-(dimethylamino)cyclohexyl)(ethyl)amino)-2-methyl-N-((5-methyl-7-oxo-1,7-dihydropyrazolo[1,5-a]pyrimidin-6-yl)methyl)benzamide]	20	5.82
CCN(c1cc(Cl)cc(C(=O)NCc2cn(C)[nH]c2=O)c1C)[C@H]1CC[C@H](N(C)C)CC1 [Compound 31a, 5-chloro-3-(ethyl((trans)-4-(dimethylamino)cyclohexyl]amino)-2-methyl-N-((1-methyl-3-oxo-2,3-dihydro-1H-pyrazol-4-yl)methyl]benzamide formate]	0.505	0.23
CCN(c1cc(Cl)cc(C(=O)NCc2c(SC)n(C)[nH]c2=O)c1C)[C@H]1CC[C@H](N(C)C)CC1 [Compound 31b, 5-chloro-3-{ethyl[(trans)-4-(dimethylamino)cyclohexyl]amino}-2-methyl-N-{[1-methyl-5-(methylsulfanyl)-3-oxo-2,3-dihydro-1H-pyrazol-4-yl]methyl}benzamide Formate]	1.24	1.07
CCN(c1cc(Cl)cc(C(=O)NCc2c(OC)nn3c(C)cc(C)nc23)c1C)[C@H]1CC[C@H](N(C)C)CC1 [Compound 48, 5-chloro-3-(((trans)-4-(dimethylamino)cyclohexyl)(ethyl)amino)-N-((2-methoxy-5,7-dimethylpyrazolo[1,5-a]pyrimidin-3-yl)methyl)-2-methylbenzamide]	> 50	> 50
CCN(c1cc(Cl)cc(C(=O)NCc2c(OC)nn3cccnc23)c1C)[C@H]1CC[C@H](N(C)C)CC1 [Compound 50, 5-chloro-3-(((trans)-4(dimethylamino)cyclohexyl)(ethyl)amino)-N-((2-methoxypyrazolo[1,5-a]pyrimidin-3-yl)methyl)-2-methylbenzamide]	27.6	2.71
CCN(c1cc(-c2ccc(CN3CCOCC3)cc2)cc(C(=O)NCc2c(OC)nn(C)c2C)c1C)[C@H]1CC[C@H](N(C)C)CC1 [Compound 53, 5-(((trans)-4-(dimethylamino)cyclohexyl) (ethyl)amino)-N-((3-methoxy-1,5-dimethyl-1H-pyrazol-4-yl)methyl)-4-methyl-4′-(morpholinomethyl)-[1,1′-biphenyl]-3-carboxamide]	2.18	0.625
CCn1nc(OC)c(CNC(=O)c2cc(Cl)cc(N(CC)[C@H]3CC[C@H](N(C)CCOC)CC3)c2C)c1C [Compound 64, 5-chloro-3-(ethyl ((trans)-4-((2-methoxyethyl)-(methyl)-amino)-cyclohexyl)amino)-N-((1-ethyl-3-methoxy-5-methyl-1H-pyrazol-4-yl)methyl)-2-methylbenzamide]	17.5	4.48
CCN(c1cc(Cl)cc(C(=O)NCc2c(OC)nn(C)c2C)c1C)[C@H]1CC[C@H](N(C)Cc2cccnc2)CC1 [Compound 66, 5-chloro-3-(ethyl((trans)-4-(methyl(pyridin-3-ylmethyl)amino)cyclohexyl)amino)-N-((3-methoxy-1,5-dimethyl-1H-pyrazol-4-yl)methyl)-2-methylbenzamide]	10.2	2.34
CCN(c1cc(Cl)cc(C(=O)NCc2c(OC)nn(C)c2C)c1C)[C@H]1CC[C@H](N(C)Cc2cccc(OCCOC)c2)CC1 [Compound 68, 5-chloro-3-(ethyl((trans)-4-((3-(2-methoxyethoxy)benzyl)(methyl)amino)cyclohexyl)amino)-N-((3-methoxy-1,5-dimethyl-1H-pyrazol-4-yl)methyl)-2-methylbenzamide]	2.59	–

Further lines, results first:

IC50 [1] [µM]	IC50 [2] [µM]	Compound
34.5	11.5	CCN(c1cc(Cl)cc(C(=O)NCc2c(C)cc3nc(C)[nH]n3c2=O)c1C)[C@H]1CC[C@H](N(C)C)CC1 [Compound 9, 5-chloro-N-((2,7-dimethyl-5-oxo-3,5-dihydro-[1,2,4]triazolo[1,5-a]pyridin-6-yl)methyl)-3-(((trans)-4-(dimethylamino)cyclohexyl)(ethyl)amino)-2-methylbenzamide]
15.6	2.67	CCN(c1cc(Cl)cc(C(=O)NCc2c(C)[nH]n(C(C)C)c2=O)c1C)[C@H]1CC[C@H](N(C)C)CC1 [Compound 37, 5-chloro-3-(((trans)-4-(dimethylamino)cyclohexyl)(ethyl)amino)-N-((2-isopropyl-5-methyl-3-oxo-2,3-dihydro-1H-pyrazol-4-yl)methyl)-2-methylbenzamide]
6.58	2.23	CCN(c1cc(Cl)cc(C(=O)NCc2c(C(C)C)[nH]n(C)c2=O)c1C)[C@H]1CC[C@H](N(C)C)CC1 [Compound 39, 5-chloro-3-(((trans)-4-(dimethylamino)cyclohexyl)(ethyl)amino)-N-((5-isopropyl-2-methyl-3-oxo-2,3-dihydro-1H-pyrazol-4-yl)methyl)-2-methylbenzamide]
0.689	0.166	CCCCc1[nH]n(C)c(=O)c1CNC(=O)c1cc(Cl)cc(N(CC)[C@H]2CC[C@H](N(C)C)CC2)c1C [Compound 40, N-((5-butyl-2-methyl-3-oxo-2,3-dihydro-1H-pyrazol-4-yl)methyl)-5-chloro-3-(((trans)-4-(dimethylamino)cyclohexyl)(ethyl)amino)-2-methylbenzamide]
10.4	5.17	CCN(c1cc(Cl)cc(C(=O)NCc2c(=O)[nH]n3c(C)cc(C)nc23)c1C)[C@H]1CC[C@H](N(C)C)CC1 [Compound 49, 5-chloro-N-((5,7-dimethyl-2-oxo-1,2-dihydropyrazolo[1,5-a]pyrimidin-3-yl)methyl)-3-(((trans)-4-(dimethylamino)cyclohexyl)(ethyl)amino)-2-methylbenzamide]
1.14	0.442	CCn1[nH]c(=O)c(CNC(=O)c2cc(Cl)cc(N(CC)[C@H]3CC[C@H](N(C)CCOC)CC3)c2C)c1C [Compound 65, 5-chloro-3-(ethyl((trans)-4-((2-methoxyethyl)-(methyl)-amino)-cyclohexyl)-amino)-N-((1-ethyl-5-methyl-3-oxo-2,3-dihydro-1H-pyrazol-4-yl)methyl)-2-methylbenzamide]
